{"source": "ChEMBL document CHEMBL4725357", "about": "“Elucidating the Structural Requirement of Uridylpeptide Antibiotics for Antibacterial Activity” (J Med Chem, 2020)", "key": {"[1]": {"test_system": "Pseudomonas aeruginosa", "assay": "Antibacterial activity against Pseudomonas aeruginosa incubated for 18 hrs by CLSI based broth microdilution method", "format": "functional"}, "[2]": {"assay": "Inhibition of Staphylococcus aureus MraY using UDPMurNAc-dansylpentapeptide as substrate incubated for 3 hrs by fluorescence method"}, "[3]": {"test_system": "Pseudomonas aeruginosa", "assay": "Antibacterial activity against Pseudomonas aeruginosa serotype K IID1012 incubated for 18 hrs by CLSI based broth microdilution method", "format": "functional"}, "[4]": {"test_system": "Pseudomonas aeruginosa", "assay": "Antibacterial activity against Pseudomonas aeruginosa isolate 1485 incubated for 18 hrs by CLSI based broth microdilution method", "format": "functional"}, "[5]": {"test_system": "Pseudomonas aeruginosa", "assay": "Antibacterial activity against Pseudomonas aeruginosa isolate 2867 incubated for 18 hrs by CLSI based broth microdilution method", "format": "functional"}, "[6]": {"test_system": "Pseudomonas aeruginosa", "assay": "Antibacterial activity against Pseudomonas aeruginosa serotype M IID1015 incubated for 18 hrs by CLSI based broth microdilution method", "format": "functional"}, "[7]": {"test_system": "Pseudomonas aeruginosa", "assay": "Antibacterial activity against Pseudomonas aeruginosa isolate 2931 incubated for 18 hrs by CLSI based broth microdilution method", "format": "functional"}, "[8]": {"test_system": "Pseudomonas aeruginosa", "assay": "Antibacterial activity against Pseudomonas aeruginosa serotype L IID5141 incubated for 18 hrs by CLSI based broth microdilution method", "format": "functional"}, "[9]": {"assay": "Substrate activity at NppA1A2BCD assessed as antibacterial activity against Pseudomonas aeruginosa PAO1 PW4181", "format": "ADME", "conditions": "pseudomonas aeruginosa pao1, 720 h; time 30 day"}, "[10]": {"test_system": "Pseudomonas aeruginosa", "assay": "Antibacterial activity against Pseudomonas aeruginosa serotype B IID1002 incubated for 18 hrs by CLSI based broth microdilution method", "format": "functional"}, "[11]": {"test_system": "Pseudomonas aeruginosa", "assay": "Antibacterial activity against Pseudomonas aeruginosa serotype E IID1130 incubated for 18 hrs by CLSI based broth microdilution method", "format": "functional"}, "[12]": {"test_system": "Pseudomonas aeruginosa", "assay": "Antibacterial activity against Pseudomonas aeruginosa serotype J IID1011 incubated for 18 hrs by CLSI based broth microdilution method", "format": "functional"}, "[13]": {"assay": "Substrate activity at NppA1A2BCD assessed as antibacterial activity against mureidomycin-resistant Pseudomonas aeruginosa PAO1 harboring NppA1A2BCD mutant measured at day 2 post mureidomycin-challenge", "format": "ADME"}, "[14]": {"test_system": "Pseudomonas aeruginosa", "assay": "Antibacterial activity against Pseudomonas aeruginosa serotype H IID1009 incubated for 18 hrs by CLSI based broth microdilution method", "format": "functional"}, "[15]": {"test_system": "Pseudomonas aeruginosa", "assay": "Antibacterial activity against Pseudomonas aeruginosa PAO1 incubated for 18 hrs by CLSI based broth microdilution method", "format": "functional"}, "[16]": {"test_system": "Pseudomonas aeruginosa", "assay": "Antibacterial activity against Pseudomonas aeruginosa ATCC 27853 incubated for 18 hrs by CLSI based broth microdilution method", "format": "functional"}, "[17]": {"test_system": "Pseudomonas aeruginosa", "assay": "Antibacterial activity against Pseudomonas aeruginosa serotype B IID1007 incubated for 18 hrs by CLSI based broth microdilution method", "format": "functional"}, "[18]": {"test_system": "Pseudomonas aeruginosa", "assay": "Antibacterial activity against Pseudomonas aeruginosa isolate 9728b incubated for 18 hrs by CLSI based broth microdilution method", "format": "functional"}, "[19]": {"test_system": "Pseudomonas aeruginosa", "assay": "Antibacterial activity against Pseudomonas aeruginosa serotype A IID1001 incubated for 18 hrs by CLSI based broth microdilution method", "format": "functional"}, "[20]": {"test_system": "Pseudomonas aeruginosa", "assay": "Antibacterial activity against Pseudomonas aeruginosa serotype I IID1010 incubated for 18 hrs by CLSI based broth microdilution method", "format": "functional"}, "[21]": {"test_system": "Pseudomonas aeruginosa", "assay": "Antibacterial activity against Pseudomonas aeruginosa serotype F IID1006 incubated for 18 hrs by CLSI based broth microdilution method", "format": "functional"}, "[22]": {"test_system": "Pseudomonas aeruginosa", "assay": "Antibacterial activity against Pseudomonas aeruginosa serotype G IID1020 incubated for 18 hrs by CLSI based broth microdilution method", "format": "functional"}, "[23]": {"test_system": "Pseudomonas aeruginosa", "assay": "Resistance index, ratio of MIC for Pseudomonas aeruginosa PAO1 incubated overnight to MIC for Pseudomonas aeruginosa PAO1 incubated for 18 hrs", "format": "functional"}, "[24]": {"test_system": "Pseudomonas aeruginosa", "assay": "Antibacterial activity against Pseudomonas aeruginosa isolate 1483 incubated for 18 hrs by CLSI based broth microdilution method", "format": "functional"}, "[25]": {"test_system": "Pseudomonas aeruginosa", "assay": "Antibacterial activity against Pseudomonas aeruginosa serotype B IID5004 incubated for 18 hrs by CLSI based broth microdilution method", "format": "functional"}, "[26]": {"assay": "Substrate activity at NppA1A2BCD assessed as antibacterial activity against Pseudomonas aeruginosa PAO1 PW4182", "format": "ADME", "conditions": "pseudomonas aeruginosa pao1, 720 h; time 30 day"}, "[27]": {"test_system": "Pseudomonas aeruginosa", "assay": "Antibacterial activity against multidrug-resistant Pseudomonas aeruginosa MDRP62 incubated for 18 hrs by CLSI based broth microdilution method", "format": "functional"}, "[28]": {"test_system": "Pseudomonas aeruginosa", "assay": "Antibacterial activity against Pseudomonas aeruginosa serotype B IID1013 incubated for 18 hrs by CLSI based broth microdilution method", "format": "functional"}, "[29]": {"test_system": "Pseudomonas aeruginosa", "assay": "Antibacterial activity against Pseudomonas aeruginosa serotype C IID1021 incubated for 18 hrs by CLSI based broth microdilution method", "format": "functional"}, "[30]": {"test_system": "Pseudomonas aeruginosa", "assay": "Antibacterial activity against Pseudomonas aeruginosa serotype M IID5018 incubated for 18 hrs by CLSI based broth microdilution method", "format": "functional"}, "[31]": {"assay": "Substrate activity at NppA1A2BCD assessed as antibacterial activity against mureidomycin-resistant Pseudomonas aeruginosa PAO1 harboring NppA1A2BCD mutant measured at day 30 post mureidomycin-challenge", "format": "ADME"}, "[32]": {"assay": "Substrate activity at NppA1A2BCD assessed as antibacterial activity against mureidomycin-resistant Pseudomonas aeruginosa PAO1 harboring NppA1A2BCD mutant measured at day 1 post mureidomycin-challenge", "format": "ADME"}, "[33]": {"test_system": "Pseudomonas aeruginosa", "assay": "Antibacterial activity against Pseudomonas aeruginosa serotype D IID1004 incubated for 18 hrs by CLSI based broth microdilution method", "format": "functional"}, "[34]": {"test_system": "HepG2", "assay": "Cytotoxicity against human HepG2 cells after 24 hrs by CCK-8 assay", "format": "cell-based", "conditions": "HepG2, 24 h"}}, "data": [{"molecule": "C[C@@H]([C@H](NC(=O)[C@H](CC[S+](C)[O-])NC(=O)N[C@@H](Cc1cccc(O)c1)C(=O)O)C(=O)N/C=C1\\O[C@@H](n2ccc(=O)[nH]c2=O)[C@H](O)[C@@H]1O)N(C)C(=O)[C@@H](N)Cc1cccc(O)c1", "note": "(stereo not given in full)", "values": [{"measurement": "MIC", "setting": "[1]", "result": 32, "unit": "µg/mL"}, {"measurement": "IC50", "setting": "[2]", "result": 4.7, "unit": "nM"}]}, {"molecule": "CSCC[C@H](NC(=O)N[C@@H](Cc1cccc(O)c1)C(=O)O)C(=O)N[C@H](C(=O)N/C=C1\\O[C@@H](n2ccc(=O)[nH]c2=O)[C@H](O)[C@@H]1O)[C@H](C)N(C)C(=O)[C@@H](N)Cc1cccc(O)c1", "values": [{"measurement": "MIC", "setting": "[3]", "result": 16, "unit": "µg/mL"}, {"measurement": "MIC", "setting": "[4]", "result": 4, "unit": "µg/mL"}, {"measurement": "MIC", "setting": "[5]", "result": 8, "unit": "µg/mL"}, {"measurement": "MIC", "setting": "[6]", "result": 16, "unit": "µg/mL"}, {"measurement": "MIC", "setting": "[7]", "result": 16, "unit": "µg/mL"}, {"measurement": "MIC", "setting": "[8]", "result": 4, "unit": "µg/mL"}, {"measurement": "MIC", "setting": "[9]", "result": "> 128", "unit": "µg/mL"}, {"measurement": "MIC", "setting": "[10]", "result": 16, "unit": "µg/mL"}, {"measurement": "MIC", "setting": "[11]", "result": 16, "unit": "µg/mL"}, {"measurement": "MIC", "setting": "[12]", "result": 16, "unit": "µg/mL"}, {"measurement": "MIC", "setting": "[13]", "result": "> 64", "unit": "µg/mL"}, {"measurement": "MIC", "setting": "[14]", "result": 8, "unit": "µg/mL"}, {"measurement": "MIC", "setting": "[15]", "result": 4, "unit": "µg/mL"}, {"measurement": "MIC", "setting": "[16]", "result": 4, "unit": "µg/mL"}, {"measurement": "MIC", "setting": "[17]", "result": 32, "unit": "µg/mL"}, {"measurement": "MIC", "setting": "[18]", "result": 32, "unit": "µg/mL"}, {"measurement": "MIC", "setting": "[19]", "result": 64, "unit": "µg/mL"}, {"measurement": "MIC", "setting": "[20]", "result": 32, "unit": "µg/mL"}, {"measurement": "MIC", "setting": "[21]", "result": "> 128", "unit": "µg/mL"}, {"measurement": "MIC", "setting": "[22]", "result": 8, "unit": "µg/mL"}, {"measurement": "Ratio", "setting": "[23]", "result": 8}, {"measurement": "MIC", "setting": "[24]", "result": 8, "unit": "µg/mL"}, {"measurement": "MIC", "setting": "[25]", "result": 8, "unit": "µg/mL"}, {"measurement": "MIC", "setting": "[26]", "result": "> 128", "unit": "µg/mL"}, {"measurement": "MIC", "setting": "[27]", "result": 16, "unit": "µg/mL"}, {"measurement": "MIC", "setting": "[28]", "result": "> 128", "unit": "µg/mL"}, {"measurement": "MIC", "setting": "[29]", "result": 8, "unit": "µg/mL"}, {"measurement": "IC50", "setting": "[2]", "result": 1.3, "unit": "nM"}, {"measurement": "MIC", "setting": "[30]", "result": "> 128", "unit": "µg/mL"}, {"measurement": "MIC", "setting": "[31]", "result": "> 64", "unit": "µg/mL"}, {"measurement": "MIC", "setting": "[32]", "result": "> 64", "unit": "µg/mL"}, {"measurement": "MIC", "setting": "[33]", "result": 8, "unit": "µg/mL"}, {"measurement": "IC50", "setting": "[34]", "result": "> 100000", "unit": "nM"}]}]}
